Source: the supplement of paper PMC10307832

Columns and labels:
Assay in all cases: relative viability (nuclei count vs DMSO), 5 days (fraction); higher = more cells survive
[1] = compound: COc1ncc(-c2ccc3nccc(-c4ccnnc4)c3c2)cc1NS(=O)(=O)c1ccc(F)cc1F [Omipalisib]
Outline: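 A plate was accepted only when its control CV was below 25% and the cells had doubled at least once. Viability is defined from nuclear counts as treated wells divided by vehicle wells, with the median taken across plates. That median covers lung cancer cell lines grown in 1536-well plates, dosed by pinning at five √10-spaced library-drug concentrations, and counted in MetaXpress from 4× Hoechst images after 5 days.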

[2] = compound: COc1ncc(-c2ccc3nccc(-c4ccnnc4)c3c2)cc1NS(=O)(=O)c1ccc(F)cc1F [Omipalisib] + O=C(c1cc(Cc2n[nH]c(=O)c3ccccc23)ccc1F)N1CCN(C(=O)C2CC2)CC1 [Olaparib] (partner 8 µM)
Outline: (§1)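 Relative viability divides the nuclei count in treated wells by that in vehicle wells. Lung cancer cell lines were seeded in 1536-well plates, dosed by pin tool the next day, and fixed and stained after 5 days in one step with final 0.05% Triton X-100, 1% formaldehyde and 1 ug/ml Hoechst. Dosing was a single drug or a fixed anchor-drug dose plus five library-drug doses (not always all listed) in √10 steps, and values are medians of duplicate plates imaged at 4×.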

[3] = compound: COc1ncc(-c2ccc3nccc(-c4ccnnc4)c3c2)cc1NS(=O)(=O)c1ccc(F)cc1F [Omipalisib] + C[C@@H](Oc1cc(-c2cnn(C3CCNCC3)c2)cnc1N)c1c(Cl)ccc(F)c1Cl [Crizotinib] (partner 1 µM)
Outline: as §1

[4] = compound: COc1ncc(-c2ccc3nccc(-c4ccnnc4)c3c2)cc1NS(=O)(=O)c1ccc(F)cc1F [Omipalisib] + CS(=O)(=O)CCNCc1ccc(-c2ccc3ncnc(Nc4ccc(OCc5cccc(F)c5)c(Cl)c4)c3c2)o1 [Lapatinib] (partner 2 µM)
Outline: as §1

[5] = compound: COc1ncc(-c2ccc3nccc(-c4ccnnc4)c3c2)cc1NS(=O)(=O)c1ccc(F)cc1F [Omipalisib] + CC(C)C[C@H](NC(=O)[C@H](Cc1ccccc1)NC(=O)c1cnccn1)B(O)O [Bortezomib] (partner 0.002 µM)
Outline: as §1

[6] = compound: COc1ncc(-c2ccc3nccc(-c4ccnnc4)c3c2)cc1NS(=O)(=O)c1ccc(F)cc1F [Omipalisib] + C[C@]1(O)C[C@@H](c2nc(-c3ccc4ccc(-c5ccccc5)nc4c3)c3c(N)nccn32)C1 [Linsitinib] (partner 1 µM)
Outline: as §1

[7] = compound: COc1ncc(-c2ccc3nccc(-c4ccnnc4)c3c2)cc1NS(=O)(=O)c1ccc(F)cc1F [Omipalisib] + CS(=O)(=O)N1CCN(Cc2cc3nc(-c4cccc5[nH]ncc45)nc(N4CCOCC4)c3s2)CC1 [Pictilisib] (partner 1 µM)
Outline: as §1

[8] = compound: COc1ncc(-c2ccc3nccc(-c4ccnnc4)c3c2)cc1NS(=O)(=O)c1ccc(F)cc1F [Omipalisib] + Cc1nc(NC(=O)N2CCC[C@H]2C(N)=O)sc1-c1ccnc(C(C)(C)C(F)(F)F)c1 [Alpelisib] (partner 2 µM)
Outline: as §1

[9] = compound: COc1ncc(-c2ccc3nccc(-c4ccnnc4)c3c2)cc1NS(=O)(=O)c1ccc(F)cc1F [Omipalisib] + COc1cc2c(Oc3ccc(NC(=O)C4(C(=O)Nc5ccc(F)cc5)CC4)cc3F)ccnc2cc1OCCCN1CCOCC1 [Foretinib] (partner 0.25 µM)
Outline: as §1

[10] = compound: COc1ncc(-c2ccc3nccc(-c4ccnnc4)c3c2)cc1NS(=O)(=O)c1ccc(F)cc1F [Omipalisib] + CC1(C)CCC(c2ccc(Cl)cc2)=C(CN2CCN(c3ccc(C(=O)NS(=O)(=O)c4ccc(N[C@H](CCN5CCOCC5)CSc5ccccc5)c(S(=O)(=O)C(F)(F)F)c4)cc3)CC2)C1 [Navitoclax] (partner 0.5 µM)
Outline: as §1

[11] = compound: COc1ncc(-c2ccc3nccc(-c4ccnnc4)c3c2)cc1NS(=O)(=O)c1ccc(F)cc1F [Omipalisib] + N=C(N)NC(=N)NCCc1ccccc1 [Phenformin] (partner 250 µM)
Outline: as §1

[12] = compound: COc1ncc(-c2ccc3nccc(-c4ccnnc4)c3c2)cc1NS(=O)(=O)c1ccc(F)cc1F [Omipalisib] + Cc1nc(Nc2ncc(C(=O)Nc3c(C)cccc3Cl)s2)cc(N2CCN(CCO)CC2)n1 [Dasatinib] (partner 0.075 µM)
Outline: as §1

[13] = compound: COc1ncc(-c2ccc3nccc(-c4ccnnc4)c3c2)cc1NS(=O)(=O)c1ccc(F)cc1F [Omipalisib] + Nc1nc2[nH]cc(CCc3ccc(C(=O)N[C@@H](CCC(=O)O)C(=O)O)cc3)c2c(=O)[nH]1 [Pemetrexed] (partner 0.2 µM)
Outline: as §1

[14] = compound: COc1ncc(-c2ccc3nccc(-c4ccnnc4)c3c2)cc1NS(=O)(=O)c1ccc(F)cc1F [Omipalisib] + CCNC(=O)c1noc(-c2cc(C(C)C)c(O)cc2O)c1-c1ccc(CN2CCOCC2)cc1 [Luminespib] (partner 0.01 µM)
Outline: as §1

[15] = compound: COc1ncc(-c2ccc3nccc(-c4ccnnc4)c3c2)cc1NS(=O)(=O)c1ccc(F)cc1F [Omipalisib] + COc1cccc2cc(-c3nc([C@H]4CC[C@H](C(=O)O)CC4)n4ncnc(N)c34)[nH]c12 [OSI-027] (partner 0.5 µM)
Outline: as §1

NCI-H1299
relative viability ([1]; 0.0003 µM): 1.06
relative viability ([1]; 0.003 µM): 1.1
relative viability ([1]; 0.03 µM): 1.02
relative viability ([2]; first compound 0.0003 µM): 1.05
relative viability ([2]; first compound 0.003 µM): 1.01
relative viability ([2]; first compound 0.03 µM): 0.902
relative viability ([3]; first compound 0.0003 µM): 0.986
relative viability ([3]; first compound 0.003 µM): 1.03
relative viability ([3]; first compound 0.03 µM): 0.967
relative viability ([4]; first compound 0.0003 µM): 1.01
relative viability ([4]; first compound 0.003 µM): 0.994
relative viability ([4]; first compound 0.03 µM): 1.02
relative viability ([5]; first compound 0.0003 µM): 1.03
relative viability ([5]; first compound 0.003 µM): 1.08
relative viability ([5]; first compound 0.03 µM): 1.12
relative viability ([6]; first compound 0.0003 µM): 0.95
relative viability ([6]; first compound 0.003 µM): 1.01
relative viability ([6]; first compound 0.03 µM): 0.909
relative viability ([7]; first compound 0.0003 µM): 0.778
relative viability ([7]; first compound 0.003 µM): 0.612
relative viability ([7]; first compound 0.03 µM): 0.624
relative viability ([8]; first compound 0.0003 µM): 1.12
relative viability ([8]; first compound 0.003 µM): 1.13
relative viability ([8]; first compound 0.03 µM): 1.06
relative viability ([9]; first compound 0.0003 µM): 1.13
relative viability ([9]; first compound 0.003 µM): 1.17
relative viability ([9]; first compound 0.03 µM): 1.12
relative viability ([10]; first compound 0.0003 µM): 1.09
relative viability ([10]; first compound 0.003 µM): 1.05
relative viability ([10]; first compound 0.03 µM): 1.05

NCI-H1563
relative viability ([1]; 0.0003 µM): 0.87
relative viability ([1]; 0.003 µM): 0.801
relative viability ([1]; 0.03 µM): 0.577
relative viability ([3]; first compound 0.0003 µM): 0.698
relative viability ([3]; first compound 0.003 µM): 0.796
relative viability ([3]; first compound 0.03 µM): 0.609
relative viability ([11]; first compound 0.0003 µM): 0.639
relative viability ([11]; first compound 0.003 µM): 0.579
relative viability ([11]; first compound 0.03 µM): 0.535
relative viability ([12]; first compound 0.0003 µM): 0.484
relative viability ([12]; first compound 0.003 µM): 0.442
relative viability ([12]; first compound 0.03 µM): 0.354
relative viability ([4]; first compound 0.0003 µM): 0.747
relative viability ([4]; first compound 0.003 µM): 0.848
relative viability ([4]; first compound 0.03 µM): 0.747
relative viability ([5]; first compound 0.0003 µM): 0.756
relative viability ([5]; first compound 0.003 µM): 0.667
relative viability ([5]; first compound 0.03 µM): 0.7
relative viability ([6]; first compound 0.0003 µM): 0.844
relative viability ([6]; first compound 0.003 µM): 0.992
relative viability ([6]; first compound 0.03 µM): 0.77
relative viability ([7]; first compound 0.0003 µM): 0.575
relative viability ([7]; first compound 0.003 µM): 0.67
relative viability ([7]; first compound 0.03 µM): 0.694
relative viability ([13]; first compound 0.0003 µM): 0.714
relative viability ([13]; first compound 0.003 µM): 0.616
relative viability ([13]; first compound 0.03 µM): 0.462
relative viability ([14]; first compound 0.0003 µM): 0.557
relative viability ([14]; first compound 0.003 µM): 0.515
relative viability ([14]; first compound 0.03 µM): 0.445
relative viability ([8]; first compound 0.0003 µM): 0.756
relative viability ([8]; first compound 0.003 µM): 0.841
relative viability ([8]; first compound 0.03 µM): 0.587
relative viability ([9]; first compound 0.0003 µM): 0.841
relative viability ([9]; first compound 0.003 µM): 0.806
relative viability ([9]; first compound 0.03 µM): 0.585
relative viability ([15]; first compound 0.0003 µM): 0.759
relative viability ([15]; first compound 0.003 µM): 0.583
relative viability ([15]; first compound 0.03 µM): 0.602
